PubChem BioAssay AID248 (DTP/NCI, 2004)
Values joined by “and” are separate entries in the source; they are usually repeats but may differ in a detail not shown here. Identical values can stand only once. Inconclusive results and toxic doses are left out.

System: L1210 leukemia ip in BDF1 mice, survival T/C
Assay: NCI In Vivo Anticancer Drug Screen. Data for tumor model L1210 Leukemia (intraperitoneal) in B6D2F1 (BDF1) mice
Settings: endpoint: mean survival time, higher = longer survival
Method in brief: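 Transplanted-tumor mice were given test agent; controls received vehicle only. Survival readings from the two groups were divided (treated over control).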

[1] = dose: 100.0 mg/kg/injection, schedule: Q04DX003 (ip), vehicle: saline with Tween-80
[2] = dose: 200.0 mg/kg/injection, schedule: Q04DX003 (ip), vehicle: saline with Tween-80
[3] = dose: 100.0 mg/kg/injection, schedule: Q01DX001 (ip), vehicle: saline
[4] = dose: 200.0 mg/kg/injection, schedule: Q01DX001 (ip), vehicle: saline

Q: `CSc1ccc(OC(=O)Nc2cc(Cl)ccc2C)cc1` was tested. Which T/C (dose: 100.0 mg/kg/injection, schedule: Q01DX001 (ip), vehicle: saline with Tween-80) did it give?
A: 98 % of control

Q: What about the T/C (dose: 100.0 mg/kg/injection, schedule: Q01DX009 (ip), vehicle: saline with Tween-80) of the same molecule?
A: 95 % of control and 98 % of control

Q: What about the T/C (dose: 100.0 mg/kg/injection, schedule: Q04DX002 (ip), vehicle: saline with Tween-80) of the same molecule?
A: 97 % of control

Q: What about the T/C [1] of the same molecule?
A: 96 % of control

Q: What about the T/C (dose: 200.0 mg/kg/injection, schedule: Q01DX001 (ip), vehicle: saline with Tween-80) of the same molecule?
A: 96 % of control

Q: What about the T/C (dose: 200.0 mg/kg/injection, schedule: Q01DX009 (ip), vehicle: saline with Tween-80) of the same molecule?
A: 96 % of control and 103 % of control

Q: And the T/C (dose: 200.0 mg/kg/injection, schedule: Q04DX002 (ip), vehicle: saline with Tween-80)?
A: 94 % of control and 101 % of control

Q: And the T/C [2]?
A: 98 % of control

Q: And the T/C (dose: 400.0 mg/kg/injection, schedule: Q01DX001 (ip), vehicle: saline with Tween-80)?
A: 93 % of control

Q: What about the T/C (dose: 400.0 mg/kg/injection, schedule: Q04DX002 (ip), vehicle: saline with Tween-80) of the same molecule?
A: 94 % of control and 105 % of control

Q: `C(=N\Nc1ccccc1)/c1cccc[n+]1Cc1ccccc1` was tested. Which T/C (dose: 75.0 mg/kg/injection, schedule: Q01DX001 (ip), vehicle: other) did it give?
A: 95 % of control

Q: What about the T/C (dose: 150.0 mg/kg/injection, schedule: Q01DX001 (ip), vehicle: other) of the same molecule?
A: 96 % of control

Q: How did the T/C (dose: 50.0 mg/kg/injection, schedule: Q01DX009 (ip), vehicle: Klucel (hydroxypropylcellulose) (HPC)) turn out when `COc1cc(OC)cc(C(N)=O)c1` was run?
A: 88 % of control

Q: What about the T/C (dose: 100.0 mg/kg/injection, schedule: Q01DX009 (ip), vehicle: Klucel (hydroxypropylcellulose) (HPC)) of the same molecule?
A: 97 % of control

Q: And the T/C (dose: 100.0 mg/kg/injection, schedule: Q04DX003 (ip), vehicle: Klucel (hydroxypropylcellulose) (HPC))?
A: 86 % of control

Q: What about the T/C (dose: 200.0 mg/kg/injection, schedule: Q01DX009 (ip), vehicle: Klucel (hydroxypropylcellulose) (HPC)) of the same molecule?
A: 91 % of control

Q: What about the T/C (dose: 400.0 mg/kg/injection, schedule: Q04DX003 (ip), vehicle: Klucel (hydroxypropylcellulose) (HPC)) of the same molecule?
A: 86 % of control

Q: How did the T/C (dose: 15.0 mg/kg/injection, schedule: Q01DX001 (ip), vehicle: saline) turn out when `CCC(C#N)N1CC1` (configuration not stated) was run?
A: 94 % of control

Q: And the T/C (dose: 30.0 mg/kg/injection, schedule: Q01DX001 (ip), vehicle: saline)?
A: 104 % of control

Q: With `CN=C(N)Nc1ccc(NC(=O)Nc2ccc(NC(=O)Nc3ccc(NC(N)=NC)cc3)cc2)cc1` as the molecule, how does the T/C (dose: 3.75 mg/kg/injection, schedule: Q01DX Z (ip), vehicle: carboxymethylcellulose (CMC)) read?
A: 100 % of control

Q: And the T/C (dose: 7.5 mg/kg/injection, schedule: Q01DX Z (ip), vehicle: carboxymethylcellulose (CMC))?
A: 110 % of control

Q: And the T/C (dose: 30.0 mg/kg/injection, schedule: Q01DX Z (ip), vehicle: carboxymethylcellulose (CMC))?
A: 170 % of control

Q: And the T/C (dose: 31.0 mg/kg/injection, schedule: Q01DX Z (oral), vehicle: carboxymethylcellulose (CMC))?
A: 100 % of control

Q: And the T/C (dose: 62.0 mg/kg/injection, schedule: Q01DX Z (oral), vehicle: carboxymethylcellulose (CMC))?
A: 110 % of control

Q: What about the T/C (dose: 125.0 mg/kg/injection, schedule: Q01DX Z (oral), vehicle: carboxymethylcellulose (CMC)) of the same molecule?
A: 95 % of control

Q: And the T/C (dose: 250.0 mg/kg/injection, schedule: Q01DX Z (oral), vehicle: carboxymethylcellulose (CMC))?
A: 101 % of control

Q: With `C1CN(P2(N3CC3)=NP(N3CC3)(N3CC3)=NP(N3CC3)(N3CC3)=N2)CCO1` (configuration not stated) as the molecule, how does the T/C (dose: 6.25 mg/kg/injection, schedule: Q01DX009 (ip), vehicle: saline) read?
A: 116 % of control and 119 % of control

Q: And the T/C (dose: 12.5 mg/kg/injection, schedule: Q01DX009 (ip), vehicle: saline)?
A: 120 % of control

Q: What about the T/C (dose: 25.0 mg/kg/injection, schedule: Q01DX001 (ip), vehicle: saline) of the same molecule?
A: 114 % of control and 119 % of control

Q: And the T/C (dose: 25.0 mg/kg/injection, schedule: Q01DX009 (ip), vehicle: saline)?
A: 156 % of control and 164 % of control

Q: What about the T/C (dose: 50.0 mg/kg/injection, schedule: Q01DX009 (ip), vehicle: saline) of the same molecule?
A: 99 % of control and 104 % of control and 87 % of control

Q: And the T/C [3]?
A: 181 % of control and 185 % of control

Q: What about the T/C [4] of the same molecule?
A: 89 % of control

Q: With `CN(Cc1ccccc1O)C1CCCCC1` as the molecule, how does the T/C (dose: 75.0 mg/kg/injection, schedule: Q01DX001 (ip), vehicle: saline) read?
A: 95 % of control

Q: `CCCCC[CH2][Sn]([I])([CH2]C)[CH2]C` was tested. Which T/C (dose: 1.56 mg/kg/injection, schedule: Q01DX009 (ip), vehicle: saline) did it give?
A: 95 % of control

Q: What about the T/C (dose: 3.13 mg/kg/injection, schedule: Q01DX009 (ip), vehicle: saline) of the same molecule?
A: 90 % of control

Q: Which T/C [1] does the source give for `CC(=O)NC1CONC1=O` (configuration not stated) here?
A: 98 % of control

Q: What about the T/C [2] of the same molecule?
A: 98 % of control

Q: What about the T/C (dose: 400.0 mg/kg/injection, schedule: Q04DX003 (ip), vehicle: saline with Tween-80) of the same molecule?
A: 94 % of control

Q: `CC1(C)CCc2cc3c(O)c(-c4ccccc4)c(=O)oc3cc2O1` was tested. Which T/C (dose: 100.0 mg/kg/injection, schedule: Q04DX003 (ip), vehicle: saline) did it give?
A: 97 % of control

Q: And the T/C (dose: 200.0 mg/kg/injection, schedule: Q04DX003 (ip), vehicle: saline)?
A: 91 % of control

Q: What about the T/C (dose: 400.0 mg/kg/injection, schedule: Q04DX003 (ip), vehicle: saline) of the same molecule?
A: 91 % of control

Q: Which results are given for `O=C(Nc1ccccc1)c1nccc2ccccc12`?
A: T/C (dose: 100.0 mg/kg/injection, schedule: Q01DX001 (ip), vehicle: steriod suspending solution): 117 % of control; T/C (dose: 200.0 mg/kg/injection, schedule: Q01DX001 (ip), vehicle: steriod suspending solution): 109 % of control; T/C (dose: 400.0 mg/kg/injection, schedule: Q01DX001 (ip), vehicle: steriod suspending solution): 108 % of control

Q: What does the source list for `CCCCCC[Si](Cl)(CCCCCC)CCCCCC`?
A: T/C [3]: 87 % of control; T/C [4]: 98 % of control
